The NIST ThermoML archive (doi:10.1021/je900715y)
± gives the expanded uncertainty stated by the source.

Test: xn = mol fraction of the nth substance listed
Details: 101.3 kPa, Liquid

CCC(C)O (stereo not given) [butan-2-ol] + CCCCCCC
mass density [kg/m3]
Details | 288.15 K | 293.15 K | 298.15 K | 303.15 K | 308.15 K | 313.15 K | 318.15 K | 323.15 K
x1 = 0.05 | 691.106 ± 0.63 | 686.813 ± 0.64 | 682.487 ± 0.65 | 678.127 ± 0.65 | 673.731 ± 0.66 | 669.301 ± 0.67 | 664.835 ± 0.67 | 660.336 ± 0.68
x1 = 0.1 | 694.641 ± 0.63 | 690.325 ± 0.64 | 685.97 ± 0.65 | 681.576 ± 0.65 | 677.138 ± 0.66 | 672.659 ± 0.66 | 668.131 ± 0.67 | 663.562 ± 0.68
x1 = 0.15 | 698.486 ± 0.63 | 694.158 ± 0.64 | 689.789 ± 0.64 | 685.376 ± 0.65 | 680.913 ± 0.66 | 676.402 ± 0.66 | 671.84 ± 0.67 | 667.23 ± 0.68
x1 = 0.2003 | 702.573 ± 0.63 | 698.236 ± 0.63 | 693.854 ± 0.64 | 689.427 ± 0.65 | 684.946 ± 0.65 | 680.415 ± 0.66 | 675.83 ± 0.67 | 671.188 ± 0.67
x1 = 0.3016 | 711.547 ± 0.62 | 707.194 ± 0.62 | 702.791 ± 0.63 | 698.341 ± 0.64 | 693.835 ± 0.65 | 689.275 ± 0.65 | 684.65 ± 0.66 | 679.969 ± 0.67
x1 = 0.4004 | 721.346 ± 0.61 | 716.97 ± 0.62 | 712.546 ± 0.62 | 708.073 ± 0.63 | 703.542 ± 0.64 | 698.952 ± 0.64 | 694.299 ± 0.65 | 689.584 ± 0.66
x1 = 0.5002 | 732.429 ± 0.6 | 728.035 ± 0.61 | 723.591 ± 0.62 | 719.095 ± 0.62 | 714.54 ± 0.63 | 709.925 ± 0.64 | 705.243 ± 0.64 | 700.502 ± 0.65
x1 = 0.5999 | 744.751 ± 0.59 | 740.362 ± 0.6 | 735.917 ± 0.61 | 731.411 ± 0.61 | 726.839 ± 0.62 | 722.202 ± 0.63 | 717.496 ± 0.63 | 712.72 ± 0.64
x1 = 0.65 | 751.547 ± 0.59 | 747.174 ± 0.6 | 742.739 ± 0.6 | 738.239 ± 0.61 | 733.67 ± 0.61 | 729.03 ± 0.62 | 724.317 ± 0.63 | 719.533 ± 0.63
x1 = 0.72 | 761.59 ± 0.58 | 757.255 ± 0.59 | 752.851 ± 0.59 | 748.373 ± 0.6 | 743.821 ± 0.61 | 739.19 ± 0.61 | 734.479 ± 0.62 | 729.69 ± 0.63
x1 = 0.8 | 774.103 ± 0.57 | 769.827 ± 0.58 | 765.479 ± 0.59 | 761.053 ± 0.59 | 756.541 ± 0.6 | 751.943 ± 0.6 | 747.257 ± 0.61 | 742.488 ± 0.62
x1 = 0.8499 | 782.463 ± 0.57 | 778.238 ± 0.57 | 773.935 ± 0.58 | 769.552 ± 0.59 | 765.08 ± 0.59 | 760.519 ± 0.6 | 755.863 ± 0.6 | 751.116 ± 0.61
x1 = 0.8995 | 791.187 ± 0.56 | 787.015 ± 0.57 | 782.767 ± 0.57 | 778.434 ± 0.58 | 774.01 ± 0.59 | 769.495 ± 0.59 | 764.879 ± 0.6 | 760.166 ± 0.6
x1 = 0.9501 | 800.691 ± 0.56 | 796.583 ± 0.56 | 792.396 ± 0.57 | 788.125 ± 0.57 | 783.761 ± 0.58 | 779.299 ± 0.59 | 774.738 ± 0.59 | 770.073 ± 0.6
x1 = 1 | 810.689 ± 0.55 | 806.646 ± 0.56 | 802.528 ± 0.56 | 798.326 ± 0.57 | 794.03 ± 0.57 | 789.632 ± 0.58 | 785.117 ± 0.58 | 780.515 ± 0.59
